A flash point compilation (Sun et al. 2020)

Molecule `CCC(CC)C(=O)O` [2-ethylbutanoicacid] has a flash point of 87 °C.
Work on `CCC1CCCCC1=O` (stereo not drawn) [2-ethylcyclohexanone] yielded a flash point of 59 °C.
Molecule `CCc1ccccc1O` [2-ethylphenol] has a flash point of 85 °C.
In the case of `Cc1ccccc1F` [2-fluorotoluene], the flash point is reported as 12 °C.
`CCCCCC(C)O` (stereo not drawn) [2-heptanol] gave a flash point of 59 °C.
`CCC(C)I` (stereo not drawn) [2-iodobutane] showed a flash point of 24 °C.
With `Cc1ccccc1I` [2-iodotoluene] the flash point was 90 °C.
With `CC(C)c1ccccc1N` [2-isopropylaniline] the flash point was 95 °C.
For `CC(C)C1CCCCC1=O` (stereo not drawn) [2-isopropylcyclohexanone], the flash point was 65 °C.
`CC(C)c1ccccc1O` [2-isopropylphenol] gave a flash point of 89 °C.
Molecule `COC1CCCCC1=O` (stereo not drawn) [2-methoxycyclohexanone] has a flash point of 69 °C.
Molecule `CC1OCCO1` [2-methyl-1,3-dioxolane] has a flash point of -2 °C.
In the case of `C=C(C)CCCCC` [2-methyl-1-heptene], the flash point is reported as 10 °C.
`C=C(C)CCCC` [2-methyl-1-hexene] showed a flash point of -8 °C.
`CCCC(C)CO` (stereo not drawn) [2-methyl-1-pentanol] gave a flash point of 51 °C.
Work on `C=C(C)CO` [2-methyl-2-propen-1-ol] yielded a flash point of 33 °C.
Molecule `C=C(C)C=O` [2-methyl-2-propenal] has a flash point of -15 °C.
With `CCC(=O)C(C)C` [2-methyl-3-pentanone] the flash point was 16 °C.
`COc1ccccc1C` [2-methylanisole] showed a flash point of 51 °C.
Work on `CCC(C)C` [2-methylbutane] yielded a flash point of -51 °C.
For `CC1CCCCC1=O` (stereo not drawn) [2-methylcyclohexanone], the flash point was 46 °C.
Work on `CC1CCCCCCC1=O` (stereo not drawn) [2-methylcyclooctanone] yielded a flash point of 71 °C.
`CC1CCCC1=O` (stereo not drawn) [2-methylcyclopentanone] gave a flash point of 26 °C.
With `Cc1ccco1` [2-methylfuran] the flash point was -26 °C.
`CCCCCC(C)C` [2-methylheptane] gave a flash point of 4 °C.
With `CCCCCCCC(C)C` [2-methylnonane] the flash point was 38 °C.
`CCCC(C)C` [2-methylpentane] gave a flash point of -32 °C.
Work on `CCCC(C)C(=O)O` (stereo not drawn) [2-methylpentanoicacid] yielded a flash point of 91 °C.
`CC(C)C=O` [2-methylpropanal] gave a flash point of -19 °C.
With `CC(C)C(=O)O` [2-methylpropanoicacid] the flash point was 59 °C.
For `CC1CCCO1` (stereo not drawn) [2-methyltetrahydrofuran], the flash point was -12 °C.
For `Cc1cccs1` [2-methylthiophene], the flash point was 8 °C.
With `CCCC(C)[N+](=O)[O-]` (stereo not drawn) [2-nitropentane] the flash point was 46 °C.
Work on `CCCCCCCC(C)O` (stereo not drawn) [2-nonanol] yielded a flash point of 82 °C.
`CC#CCCCCCC` [2-nonyne] gave a flash point of 39 °C.
For `C1=CC2CCC1C2` [2-norbornene], the flash point was -14 °C.
`CCCCCCC(C)=O` [2-octanone] showed a flash point of 56 °C.
In the case of `CCCC(C)S` (stereo not drawn) [2-pentanethiol], the flash point is reported as 15 °C.
`CCCC(C)O` (stereo not drawn) [2-pentanol] showed a flash point of 34 °C.
`CC#CCC` [2-pentyne] showed a flash point of -30 °C.
`OCCc1ccccc1` [2-phenylethanol] showed a flash point of 102 °C.
With `CC(=O)OCCc1ccccc1` [2-phenylethylacetate] the flash point was 102 °C.
`CCC(=O)OCCc1ccccc1` [2-phenylethylpropionate] gave a flash point of 113 °C.
For `Cc1ccccn1` [2-picoline], the flash point was 26 °C.
For `CCCc1ccccc1N` [2-propylaniline], the flash point was 97 °C.
Molecule `CCCc1cccs1` [2-propylthiophene] has a flash point of 32 °C.
In the case of `C#CCO` [2-propyn-1-ol], the flash point is reported as 36 °C.
`CCC(C)c1ccccc1N` (stereo not drawn) [2-sec-butylaniline] gave a flash point of 102 °C.
`CC(C)(C)C1CCCCC1=O` (stereo not drawn) [2-tert-butylcyclohexanone] gave a flash point of 72 °C.
Work on `CC(C)(C)c1ccco1` [2-tert-butylfuran] yielded a flash point of 7 °C.
`CC(C)(C)c1ccccc1O` [2-tert-butylphenol] showed a flash point of 102 °C.
`CCCCCCCCCC(C)O` (stereo not drawn) [2-undecanol] showed a flash point of 107 °C.
With `CCC(C)C(C)(C)CC` (stereo not drawn) [3,3,4-trimethylhexane] the flash point was 15 °C.
For `CCCC(C)C(C)CC` (stereo not drawn) [3,4-dimethylheptane], the flash point was 15 °C.
In the case of `CC(C)=CCCC(C)CC=O` (stereo not drawn) [3,7-dimethyl-6-octenal], the flash point is reported as 78 °C.
Molecule `CCCC(Br)CC` (stereo not drawn) [3-bromohexane] has a flash point of 40 °C.
With `CCC(Br)CC` [3-bromopentane] the flash point was 19 °C.
With `Cc1cccc(Br)c1` [3-bromotoluene] the flash point was 75 °C.
With `C=CCCO` [3-buten-1-ol] the flash point was 32 °C.
In the case of `C=CC(C)O` (stereo not drawn) [3-buten-2-ol], the flash point is reported as 20 °C.
`OCCCCl` [3-chloro-1-propanol] gave a flash point of 73 °C.
For `C=C(C)CCl` [3-chloro-2-methyl-1-propene], the flash point was -12 °C.
`C=CCCl` [3-chloropropene] gave a flash point of -28 °C.
Work on `CCC(CC)C(C)(C)C` [3-ethyl-2,2-dimethylpentane] yielded a flash point of 13 °C.
With `CCC(C(C)C)C(C)C` [3-ethyl-2,4-dimethylpentane] the flash point was 15 °C.
With `CCC(CC)C(C)C` [3-ethyl-2-methylpentane] the flash point was 3 °C.
Work on `CC=C(CC)CC` [3-ethyl-2-pentene] yielded a flash point of -6 °C.
Molecule `CCCCC(C)(CC)CC` [3-ethyl-3-methylheptane] has a flash point of 41 °C.
In the case of `CCC(C)CC(CC)CC` (stereo not drawn) [3-ethyl-5-methylheptane], the flash point is reported as 31 °C.
For `CCCC(CC)CC` [3-ethylhexane], the flash point was 5 °C.
With `CCc1cccc(O)c1` [3-ethylphenol] the flash point was 94 °C.
For `CCc1ccsc1` [3-ethylthiophene], the flash point was 23 °C.
`Cc1cccc(F)c1` [3-fluorotoluene] gave a flash point of 12 °C.
`CCCCC(=O)CC` [3-heptanone] gave a flash point of 38 °C.
For `CCC#CCC` [3-hexyne], the flash point was -14 °C.
`C=CCI` [3-iodo-1-propene] gave a flash point of 16 °C.
Work on `CCCC(I)CC` (stereo not drawn) [3-iodohexane] yielded a flash point of 55 °C.
Work on `CC(C)c1cccc(O)c1` [3-isopropylphenol] yielded a flash point of 104 °C.
For `C=CC(C)CCC` (stereo not drawn) [3-methyl-1-hexene], the flash point was -18 °C.
For `C=CC(C)CC` (stereo not drawn) [3-methyl-1-pentene], the flash point was -33 °C.
In the case of `CC(C)C(C)S` (stereo not drawn) [3-methyl-2-butanethiol], the flash point is reported as 9 °C.
`CC(C)C(C)O` (stereo not drawn) [3-methyl-2-butanol] gave a flash point of 27 °C.
`Cc1cccc(N)c1` [3-methylaniline] showed a flash point of 86 °C.
`CC(C)CC(=O)O` [3-methylbutanoicacid] showed a flash point of 74 °C.
Molecule `CC(C)CC(=O)OC(=O)CC(C)C` [3-methylbutanoicanhydride] has a flash point of 91 °C.
Molecule `CC1CCCC(=O)C1` (stereo not drawn) [3-methylcyclohexanone] has a flash point of 48 °C.
For `CCCCC(C)CC` (stereo not drawn) [3-methylheptane], the flash point was 6 °C.
With `CCCC(C)CC` (stereo not drawn) [3-methylhexane] the flash point was -15 °C.
Molecule `CCCC(C)CC(=O)O` (stereo not drawn) [3-methylhexanoicacid] has a flash point of 103 °C.
With `C=Cc1cccc(C)c1` [3-methylstyrene] the flash point was 48 °C.
In the case of `Cc1ccsc1` [3-methylthiophene], the flash point is reported as 11 °C.
Molecule `CCCCCCC(O)CC` (stereo not drawn) [3-nonanol] has a flash point of 79 °C.
For `CCC#CCCCCC` [3-nonyne], the flash point was 38 °C.
`CCCCCC(O)CC` (stereo not drawn) [3-octanol] showed a flash point of 68 °C.
`CC(=O)OCCCc1ccccc1` [3-phenylpropylacetate] gave a flash point of 113 °C.
For `CCCCCCCCC(=O)CC` [3-undecanone], the flash point was 89 °C.
Work on `C=CCCBr` [4-bromo-1-butene] yielded a flash point of 9 °C.
Work on `CCCCCCC(=O)CCC` [4-decanone] yielded a flash point of 71 °C.
In the case of `CCCC#CCCCCC` [4-decyne], the flash point is reported as 52 °C.
For `CCc1ccc(N)cc1` [4-ethylaniline], the flash point was 97 °C.
`CCCC(CC)CCC` [4-ethylheptane] showed a flash point of 15 °C.
For `C=CC=C(C)C` [4-methyl-1,3-pentadiene], the flash point was -18 °C.
In the case of `C=CCC(C)CCC` (stereo not drawn) [4-methyl-1-heptene], the flash point is reported as 2 °C.
Work on `C=CCC(C)CC` (stereo not drawn) [4-methyl-1-hexene] yielded a flash point of -15 °C.
For `CC(C)CCCO` [4-methyl-1-pentanol], the flash point was 51 °C.
For `C#CCC(C)C` [4-methyl-1-pentyne], the flash point was -24 °C.
`CC(=O)CC(C)C` [4-methyl-2-pentanone] gave a flash point of 14 °C.
Work on `C=CC1(C)CCC(=O)O1` (stereo not drawn) [4-methyl-4-vinylbutyrolactone] yielded a flash point of 75 °C.
`CC1CCC(=O)CC1` [4-methylcyclohexanone] showed a flash point of 48 °C.
For `CCC(C)CCC(=O)O` (stereo not drawn) [4-methylhexanoicacid], the flash point was 103 °C.
`CCCCCC(C)CCC` (stereo not drawn) [4-methylnonane] showed a flash point of 38 °C.
Molecule `CCCCC(C)CCC` (stereo not drawn) [4-methyloctane] has a flash point of 22 °C.
`CC(C)CCC(=O)O` [4-methylpentanoicacid] gave a flash point of 97 °C.
`C=Cc1ccc(C)cc1` [4-methylstyrene] showed a flash point of 46 °C.
With `CCCCCC(=O)CCC` [4-nonanone] the flash point was 62 °C.
Work on `CCCC#CCCCC` [4-nonyne] yielded a flash point of 35 °C.
With `Cc1ccncc1` [4-picoline] the flash point was 38 °C.
In the case of `CCCC1CCC(=O)CC1` [4-propylcyclohexanone], the flash point is reported as 86 °C.
In the case of `CSCCC=O` [4-thiapentanal], the flash point is reported as 61 °C.
Molecule `CCCCCCCC(=O)CCC` [4-undecanone] has a flash point of 92 °C.
Molecule `C#CCCCCl` [5-chloro-1-pentyne] has a flash point of 15 °C.
Work on `C=CCCC(C)C` [5-methyl-1-hexene] yielded a flash point of -10 °C.
`CCC(=O)CC(C)CC` (stereo not drawn) [5-methyl-3-heptanone] showed a flash point of 43 °C.
Molecule `CCCCC(C)CCCC` [5-methylnonane] has a flash point of 37 °C.
`CCCCC(=O)CCCC` [5-nonanone] gave a flash point of 60 °C.
`CCCCCC(=O)CCCCC` [6-undecanone] gave a flash point of 88 °C.
For `C=CCCCCC(C)C` [7-methyl-1-octene], the flash point was 18 °C.
`C=CCCCCCCCCO` [9-decen-1-ol] gave a flash point of 119 °C.
